Assay results taken from patent US20250382298A1, “NITROGEN-CONTAINING COMPOUND AND USE THEREOF” (SUZHOU GENHOUSE BIO CO., LTD., priority 2022, published 2025).

Experiments:
[1] = system: HCT-116 cells; experiment: Mitotic index analysis, pH3 expression in HCT-116 cells; assay type: cell-based; details: 24 h treatment
How it was run: (§1)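 HCT-116 or HT-29 cells treated 24 h with 9-point 3-fold dilutions from 10 μM, then fixed and immunostained for phospho-histone H3 with DRAQ5 counterstain. Near-infrared fluorescence read at 700/800 nm; pH3 expressed as % of DMSO control and EC50 fitted.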

[2] = system: OVCAR3 cells; experiment: Detection of OVCAR3 cell proliferation activity by CTG method; assay type: cell-based; details: CellTiter-Glo, 7 days
From the text: This assay can be used to examine the potency of compounds in inhibiting the proliferation of tumor cells (OVCAR3, HT-29, BT-549, HCT-116). A lower IC50 value indicates high potency of the compound as a KIF18A inhibitor in the following assay setup,
1640 medium; fetal bovine serum; penicillin/streptomycin antibiotics purchased from Wisent; CellTiter-Glo (chemiluminescence detection reagent for cell viability) reagent purchased from Promega; OVCAR3 cell line purchased from Nanjing Cobioer Biosciences Co., Ltd.; Nivo multimode microplate reader (PerkinElmer),
OVCAR3 cells were seeded into a white 96-well plate, with 80 μL of cell suspension containing 2000 OVCAR3 cells added to each well. The cell plate was incubated in a CO2 incubator overnight.
A test compound was 5-fold diluted to the 8th concentration (i.e., from 2 mM to […]) using a multichannel pipette, with duplicate wells set up. To an intermediate plate was added 78 μL of medium, and the serially diluted compound was transferred to the corresponding wells of the intermediate plate at 2 μL/well. The mixture was mixed well and then transferred to the cell plate at 20 μL/well. The concentration of the compound transferred to the cell plate ranged from 10 μM to 0.026 nM. The cell plate was incubated in a CO2 incubator for 7 days. Another cell plate was prepared and read for signal values on the day of compound addition, and these values were used as the maximum values (the Max value in the equation below) in data analysis. To this cell plate was added the chemiluminescence detection reagent for cell viability at 25 μL/well, and the luminescence signals were stabilized by incubation at room temperature for 10 min. Readings were taken using the multimode microplate reader.
To the cell plate was added the chemiluminescence detection reagent for cell viability at 25 μL/well, and the luminescence signals were stabilized by incubation at room temperature for 10 mm. Readings were taken using the multimode microplate reader, […]

[3] = system: BT-549 cells; experiment: Detection of cell proliferation activity by CCK8 method (BT-549); assay type: cell-based; details: CCK8, 96 h
How it was run: (§2)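 Cells seeded at 1500/well (BT-549, 1640 medium) or 2000/well (HT-29, HCT-116, McCoy's 5A), treated next day with 9-point 1:5 dilutions from 10 μM final, triplicate, for 96 h. CCK8 read at 450 nm after 2 h at 37 °C; inhibition versus DMSO, IC50 by non-linear regression.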

[4] = system: HT-29 cells; experiment: Detection of cell proliferation activity by CCK8 method (HT-29); assay type: cell-based, human; details: CCK8, 96 h
How it was run: as §2

[5] = system: HT-29 cells; experiment: Mitotic index analysis, pH3 expression in HT-29 cells; assay type: cell-based, human; details: 24 h treatment
How it was run: as §1

[6] = system: HCT-116 cells; experiment: Detection of cell proliferation activity by CCK8 method (HCT-116); assay type: cell-based; details: CCK8, 96 h
How it was run: as §2

[7] = Pharmacokinetic test in rats; assay type: in vivo; details: SD rats, PO @5mpk; for AUC / Cmax / half-life: rat, plasma, 5 mg/kg; for half-life: read-out: t½ (converted)
Experimental: In this example, the pharmacokinetic behavior of the compounds after intravenous injection (IV) and intragastric (PO) administration in SD rats was tested.
On the day of administration, rats were weighed for actual body weight and the administration volume was calculated. Each compound was tested in two groups with 3 rats in each group; one group was subjected to administration by single intravenous injection, and the other group was subjected to single intragastric administration. Whole blood samples were collected via the jugular vein at prescribed time points (0.25 h, 0.5 h, 1 h, 2 h, 4 h, 8 h, and 24 h after administration). After blood sample collection, the samples were immediately transferred to labeled commercial sample tubes containing K2-EDTA (0.85-1.15 mg), followed by centrifugation (3200×g, 4° C., 10 min) and plasma collection. The plasma was transferred to a pre-cooled centrifuge tube, frozen in dry ice, and then stored in an ultra-low temperature freezer at −60° C. or lower until the LC-MS/MS analysis.
Plasma concentrations were determined by the LC-MS/MS method. Plasma drug concentration data for the compounds were processed using a non-compartmental model in the WinNonlin Version 6.3 (Pharsight, Mountain View, CA) pharmacokinetic software. The relevant pharmacokinetic parameters were calculated by a linear-log trapezoidal method.

[8] = molecular target: KIF18A (Homo sapiens (Human), UniProt Q8NI77); experiment: KIF18A enzymatic activity inhibition, ADP-Glo kit; assay type: biochemical; details: 4 nM KIF18A, 30 μM ATP
Sequence of KIF18A (Q8NI77 1-467): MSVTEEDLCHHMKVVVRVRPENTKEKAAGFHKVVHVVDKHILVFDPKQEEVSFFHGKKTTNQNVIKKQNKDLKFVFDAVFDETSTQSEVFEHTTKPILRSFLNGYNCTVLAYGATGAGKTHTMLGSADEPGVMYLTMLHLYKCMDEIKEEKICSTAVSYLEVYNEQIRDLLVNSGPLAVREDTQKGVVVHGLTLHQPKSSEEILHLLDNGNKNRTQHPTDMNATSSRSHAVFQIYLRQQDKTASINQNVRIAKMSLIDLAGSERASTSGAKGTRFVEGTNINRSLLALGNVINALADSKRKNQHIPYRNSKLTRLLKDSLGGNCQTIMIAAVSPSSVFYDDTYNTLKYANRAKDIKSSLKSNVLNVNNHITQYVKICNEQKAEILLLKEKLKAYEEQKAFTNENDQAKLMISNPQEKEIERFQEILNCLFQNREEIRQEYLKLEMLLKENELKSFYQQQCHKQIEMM
Experimental: In this experiment, an ADP-Glo kit was used to detect the inhibitory activity of the compounds against KIF18A. Each compound was prepared into a 10 mM stock solution with DMSO, which was then diluted at 1:5 to obtain 9 gradients with the initial final concentration set at 10 μM. Meanwhile, a control group and a blank group were also set up. The reaction buffer consisted of 15 mM Tris (pH 7.5), 10 mM MgCl2, and 0.01% Pluronic F-68. 4 nM KIF18A (1467) and the test compound were added to a 384-well plate and incubated at 37° C. for 20 mm. Then, 30 μM ATP was added to initiate the enzymatic reaction, and the plate was incubated at room temperature for 15 min. Finally, the ADP-Glo reagent was added to detect the luminescence intensity, where the luminescence intensity is directly proportional to the ADP content. Inhibition rate (%)=[…]. Sample signal is the value of the compound group, and DMSO signal is the value of the DMSO control group. Then, the inhibition rate at each concentration was calculated, and the IC50 was determined by fitting using the GraphPadPrism 7.0 software.

[9] = system: OVCAR3 cells; experiment: Detection of cell proliferation activity by CCK8 method (OVCAR3); assay type: cell-based
How it was run: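 OVCAR3 tumor cells in log-phase growth were trypsinized, counted and plated at 180 μL per well in 96-well plates, with PBS in the outer wells. The following day, compounds were added in 9 concentrations (1:5 dilutions starting at 10 μM final) in triplicate alongside DMSO controls. After 96 h, medium was swapped for 100 μL medium containing 10% CCK8. Plates were incubated 2 h at 37° C and read at 450 nm. Background-corrected inhibition relative to DMSO was fitted by non-linear regression in GraphPad Prism 7.0 to obtain IC50.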

Structure (SMILES) | EC50 ([1]; Homo sapiens) [nM] | IC50 ([2]; Homo sapiens, OVCAR-3, 168 h) [nM] | IC50 ([3]; Homo sapiens) [nM] | IC50 ([4]; Homo sapiens) [nM] | EC50 ([5]; Homo sapiens) [nM] | IC50 ([6]; Homo sapiens) [nM] | F [7] [%] | AUC [7] [µM·h] | Cmax [7] [nM] | half-life [7] [h] | IC50 [8] [nM] | EC50 [1] [nM] | IC50 [2] [nM] | IC50 [3] [nM] | IC50 [4] [nM] | IC50 ([9]; CCK8, 96 h) [nM] | EC50 [5] [nM] | IC50 [6] [nM] | IC50 ([9]; Homo sapiens, OVCAR-3, CCK8, 96 h) [nM]
O=C(Nc1cn2ccnc2c(N2CCOCC2)n1)c1ccc(NS(=O)(=O)CCO)cc1N1CCC2(CC1)CC2 [Compound 11] | > 10000 | 36 | 109 | 146 | 139 | > 10000 | 25 | 0.604 | 217 | 2.4 | 15.2 |  |  |  |  |  |  |  | 
O=C(Nc1cn2ccnc2c(N2CCCCC2)n1)c1ccc(NS(=O)(=O)CCO)cc1N1CCC2(CC1)CC2 [Compound 12] | > 10000 | 15 | 34 | 73 | 51 | > 10000 | 18.3 | 2.41 | 526 | 2.6 | 10.2 |  |  |  |  |  |  |  | 
O=C(Nc1cn2cncc2c(N2CCC(F)(F)CC2)n1)c1ccc(NS(=O)(=O)CCO)cc1N1CCC2(CC1)CC2 [Compound 27] |  |  |  |  |  |  |  |  |  |  | 23.1 | > 10000 | 38.6 | 81.9 | 141 | 27.2 | 34.6 | > 10000 | 
O=C(Nc1cc2nn[nH]c2c(N2CCC(F)(F)CC2)n1)c1ccc(NS(=O)(=O)CCO)cc1N1CCC2(CC1)CC2 [Compound 28] |  |  |  |  |  |  |  |  |  |  | 33.4 | > 10000 | 27.4 | 117 | 321 | 23.4 | 77.8 | > 10000 | 
O=C(Nc1cn2ccnc2c(N2CC3(CCC3)C2)n1)c1ccc(NS(=O)(=O)CCO)cc1N1CCC2(CC1)CC2 [Compound 29] | > 10000 | 220 | 1040 | 335 | 108 | > 10000 |  |  |  |  | 63.4 |  |  |  |  |  |  |  | 206
